Legend:
[1] = test system: HL-60; assay: Cytotoxicity against human HL60 cells after 24 hrs by MTT assay; format: functional, cell-based; conditions: HL-60, 24 h
[2] = test system: Lymphocyte; assay: Cytotoxicity against human lymphocytes after 24 to 48 hrs by MTT assay; format: cell-based
[3] = test system: Jurkat E6.1; assay: Cytotoxicity against human Jurkat E6-1 cells after 24 hrs by MTT assay; format: functional, cell-based; conditions: Jurkat E6.1, 24 h
[4] = Inhibition of beta-hematin formation assessed as reduction in acetate buffer-initiated hemozoin formation measured after 48 hrs; design: concentration or dose not given beside the values; conditions: concentration not given here
[5] = Selectivity index, ratio of IC50 for human lymphocytes to IC50 for human Jurkat E6-1 cells; format: toxicity; conditions: human lymphocytes versus Jurkat E6-1 cells, read-out: Ratio IC50
[6] = Selectivity index, ratio of IC50 for human lymphocytes to IC50 for human HL60 cells; format: toxicity; conditions: human lymphocytes versus HL60 cells, read-out: Ratio IC50
[7] = test system: Jurkat E6.1; assay: Induction of apoptosis in human Jurkat E6-1 cells assessed as necrotic cells at 5 uM after 24 hrs by Annexin-V-FITC/propidium iodide staining based flow cytometric analysis (reference value: 1.26 +/- 0.24 %); format: functional
[8] = test system: Jurkat E6.1; assay: Induction of apoptosis in human Jurkat E6-1 cells assessed as late apoptotic cells at 5 uM after 24 hrs by Annexin-V-FITC/propidium iodide staining based flow cytometric analysis (reference value: 0.73 +/- 0.14 %); format: functional
[9] = test system: HL-60; assay: Induction of apoptosis in human HL60 cells assessed as necrotic cells at 5 uM after 24 hrs by Annexin-V-FITC/propidium iodide staining based flow cytometric analysis (reference value: 1.96 +/- 0.33 %); format: functional
[10] = test system: HL-60; assay: Induction of apoptosis in human HL60 cells assessed as late apoptotic cells at 5 uM after 24 hrs by Annexin-V-FITC/propidium iodide staining based flow cytometric analysis (reference value: 0.85 +/- 0.13 %); format: functional
[11] = test system: HL-60; assay: Induction of apoptosis in human HL60 cells assessed as early apoptotic cells at 5 uM after 24 hrs by Annexin-V-FITC/propidium iodide staining based flow cytometric analysis (reference value: 0.36 +/- 0.02 %); format: functional
[12] = test system: Jurkat E6.1; assay: Induction of apoptosis in human Jurkat E6-1 cells assessed as early apoptotic cells at 5 uM after 24 hrs by Annexin-V-FITC/propidium iodide staining based flow cytometric analysis (reference value: 0.5 +/- 0.07 %); format: functional
[13] = test system: Plasmodium berghei; assay: Antimalarial activity against chloroquine-susceptible Plasmodium berghei ANKA infected in Balb-C mouse assessed as mean survival days at 10 mg/kg, ip administered once daily for 4 days (reference value: 8.4 +/- 0.15 day); format: functional
[14] = test system: Plasmodium berghei; assay: Antimalarial activity against chloroquine-susceptible Plasmodium berghei ANKA infected in Balb-C mouse assessed as parasitemia at 10 mg/kg, ip administered once daily for 4 days measured post last dose by Giemsa staining based method (reference value: 65.8 +/- 4.38%); format: functional
[15] = test system: Jurkat E6.1; assay: Induction of apoptosis in human Jurkat E6-1 cells assessed as necrotic cells at 100 uM after 24 hrs by Annexin-V-FITC/propidium iodide staining based flow cytometric analysis (reference value: 1.26 +/- 0.24 %); format: functional
[16] = test system: Jurkat; assay: Cytotoxicity against human Jurkat cells after 20 hrs by propidium iodide staining based flow cytometry; format: functional, cell-based
[17] = test system: Jurkat E6.1; assay: Induction of apoptosis in human Jurkat E6-1 cells assessed as early apoptotic cells at 100 uM after 24 hrs by Annexin-V-FITC/propidium iodide staining based flow cytometric analysis (reference value: 0.5 +/- 0.07 %); format: functional
[18] = test system: HL-60; assay: Induction of apoptosis in human HL60 cells assessed as late apoptotic cells at 100 uM after 24 hrs by Annexin-V-FITC/propidium iodide staining based flow cytometric analysis (reference value: 0.85 +/- 0.13 %); format: functional
[19] = test system: HL-60; assay: Induction of apoptosis in human HL60 cells assessed as early apoptotic cells at 100 uM after 24 hrs by Annexin-V-FITC/propidium iodide staining based flow cytometric analysis (reference value: 0.36 +/- 0.02 %); format: functional
[20] = test system: HL-60; assay: Induction of apoptosis in human HL60 cells assessed as necrotic cells at 100 uM after 24 hrs by Annexin-V-FITC/propidium iodide staining based flow cytometric analysis (reference value: 1.96 +/- 0.33 %); format: functional
[21] = test system: Jurkat E6.1; assay: Induction of apoptosis in human Jurkat E6-1 cells assessed as late apoptotic cells at 100 uM after 24 hrs by Annexin-V-FITC/propidium iodide staining based flow cytometric analysis (reference value: 0.73 +/- 0.14 %); format: functional
[22] = test system: Jurkat E6.1; assay: Induction of apoptosis in human Jurkat E6-1 cells assessed as necrotic cells at 50 uM after 24 hrs by Annexin-V-FITC/propidium iodide staining based flow cytometric analysis (reference value: 1.26 +/- 0.24 %); format: functional
[23] = test system: HL-60; assay: Induction of apoptosis in human HL60 cells assessed as necrotic cells at 50 uM after 24 hrs by Annexin-V-FITC/propidium iodide staining based flow cytometric analysis (reference value: 1.96 +/- 0.33 %); format: functional
[24] = test system: Jurkat E6.1; assay: Induction of apoptosis in human Jurkat E6-1 cells assessed as late apoptotic cells at 50 uM after 24 hrs by Annexin-V-FITC/propidium iodide staining based flow cytometric analysis (reference value: 0.73 +/- 0.14 %); format: functional
[25] = test system: HL-60; assay: Induction of apoptosis in human HL60 cells assessed as early apoptotic cells at 50 uM after 24 hrs by Annexin-V-FITC/propidium iodide staining based flow cytometric analysis (reference value: 0.36 +/- 0.02 %); format: functional
[26] = test system: Jurkat E6.1; assay: Induction of apoptosis in human Jurkat E6-1 cells assessed as early apoptotic cells at 50 uM after 24 hrs by Annexin-V-FITC/propidium iodide staining based flow cytometric analysis (reference value: 0.5 +/- 0.07 %); format: functional
[27] = test system: HL-60; assay: Induction of apoptosis in human HL60 cells assessed as late apoptotic cells at 50 uM after 24 hrs by Annexin-V-FITC/propidium iodide staining based flow cytometric analysis (reference value: 0.85 +/- 0.13 %); format: functional
[28] = test system: HL-60; assay: Induction of apoptosis in human HL60 cells assessed as necrotic cells at 1 uM after 24 hrs by Annexin-V-FITC/propidium iodide staining based flow cytometric analysis (reference value: 1.96 +/- 0.33 %); format: functional
[29] = test system: HL-60; assay: Induction of apoptosis in human HL60 cells assessed as late apoptotic cells at 1 uM after 24 hrs by Annexin-V-FITC/propidium iodide staining based flow cytometric analysis (reference value: 0.85 +/- 0.13 %); format: functional
[30] = test system: Jurkat E6.1; assay: Induction of apoptosis in human Jurkat E6-1 cells assessed as late apoptotic cells at 1 uM after 24 hrs by Annexin-V-FITC/propidium iodide staining based flow cytometric analysis (reference value: 0.73 +/- 0.14 %); format: functional
[31] = test system: Jurkat E6.1; assay: Induction of apoptosis in human Jurkat E6-1 cells assessed as early apoptotic cells at 1 uM after 24 hrs by Annexin-V-FITC/propidium iodide staining based flow cytometric analysis (reference value: 0.5 +/- 0.07 %); format: functional
[32] = test system: HL-60; assay: Induction of apoptosis in human HL60 cells assessed as early apoptotic cells at 1 uM after 24 hrs by Annexin-V-FITC/propidium iodide staining based flow cytometric analysis (reference value: 0.36 +/- 0.02 %); format: functional
[33] = test system: Jurkat E6.1; assay: Induction of apoptosis in human Jurkat E6-1 cells assessed as necrotic cells at 1 uM after 24 hrs by Annexin-V-FITC/propidium iodide staining based flow cytometric analysis (reference value: 1.26 +/- 0.24 %); format: functional

Row | SMILES | inhibition [4] [%] | IC50 [1] [µM] | IC50 [2] [µM] | IC50 [3] [µM] | selectivity ratio [5] | selectivity ratio [6] | MSD [13] [days] | Activity [14] [%] | other results
1 | COC(=O)/C(=C\c1ccc(OC(=O)c2cc(OCc3ccccc3)c(OCc3ccccc3)c(OCc3ccccc3)c2)cc1)Sc1ccnc2cc(Cl)ccc12 | 23 | > 100 | > 100 | > 100 |  |  |  |  | 
2 | COC(=O)/C(=C\c1ccc(OC(=O)c2c(OC)cccc2OC)cc1)Sc1ccnc2cc(Cl)ccc12 | 92.7 | 37.2 | > 100 | 37.5 |  |  | 23 | 2.6 | 
3 | COC(=O)/C(=C\c1ccc(OC(=O)c2cc(OC)cc(OC)c2)cc1)Sc1ccnc2cc(Cl)ccc12 | 85.6 | 19 | 84.1 | 28.9 | 2.92 | 4.42 | 28.5 | 1.4 | 
4 | CCN(CC)CCCC(C)Nc1ccnc2cc(Cl)ccc12 (stereo unspecified) [CHLOROQUINE] | 98.5 | > 100 | > 100 | 83.6 |  |  | 29.98 | 0.8 | Activity [15]: 23.7%; IC50 [16]: 95 µM; Activity [17]: 1.4%; Activity [18]: 2.14%; Activity [19]: 0.66%; Activity [20]: 23.6%; Activity [21]: 7.85%
5 | O=[As][As+](=O)[O-] (stereo unspecified) [ARSENIC TRIOXIDE] |  | 4.97 | 15.3 | 7.32 | 2.09 | 3.07 |  |  | 
6 | COC(=O)/C(=C\c1ccc(OC(=O)c2cc(OC)c(OC)c(OC)c2)cc1)Sc1ccnc2cc(Cl)ccc12 | 2.48 | 4.24 | 35.2 | 4.57 | 7.7 | 8.3 |  |  | Activity [7]: 35.6%; Activity [8]: 10.3%; Activity [9]: 45.8%; Activity [10]: 11.3%; Activity [11]: 0.75%; Activity [12]: 2.41%
7 | COC(=O)/C(=C\c1ccc(O)cc1)Sc1ccnc2cc(Cl)ccc12 | 72.4 | 4.31 | 33.7 | 5.18 | 6.51 | 7.82 | 24.8 | 1.4 | Activity [7]: 38.8%; Activity [8]: 2.12%; Activity [9]: 45%; Activity [10]: 3.15%; Activity [11]: 0.74 - 0.75%; Activity [12]: 0.45%
8 | COC(=O)/C(=C\c1ccc(OC(=O)c2cc(OC)c(OC)cc2OC)cc1)Sc1ccnc2cc(Cl)ccc12 | 39.6 | 6.26 | 52.5 | 9.65 | 5.44 | 8.34 |  |  | Activity [7]: 21.4%; Activity [8]: 3.17%; Activity [9]: 29.5%; Activity [10]: 4.21%; Activity [11]: 0.61%; Activity [12]: 0.85%
9 | O=c1c(O)c(-c2ccc(O)c(O)c2)oc2cc(O)cc(O)c12 [QUERCETIN] |  |  |  |  |  |  |  |  | Activity [22]: 31.9%; Activity [23]: 31%; Activity [24]: 9.51%; Activity [25]: 0.46%; Activity [26]: 0.64%; Activity [27]: 3.07%
10 | COC(=O)/C(=C\c1ccc(OC(=O)c2ccccc2OC)cc1)Sc1ccnc2cc(Cl)ccc12 | 94.6 | 44.5 | > 100 | 44.6 |  |  | 28.83 | 1.2 | 
11 | COC(=O)/C(=C\c1ccc(OC(=O)c2cccc(OC)c2)cc1)Sc1ccnc2cc(Cl)ccc12 | 87.1 | 25.5 | > 100 | 33.2 |  |  | 27.16 | 1.5 | 
12 | COc1cccc2c1C(=O)c1c(O)c3c(c(O)c1C2=O)C[C@@](O)(C(=O)CO)C[C@@H]3O[C@H]1C[C@H](N)[C@H](O)[C@H](C)O1 [DOXORUBICIN] |  | 1.6 | 4.36 | 1.03 |  |  |  |  | Activity [28]: 30.2%; Activity [29]: 20.8%; Activity [30]: 19.8%; Activity [31]: 0.89%; Activity [32]: 1.91%; Activity [33]: 32.6%

Continued, in another order:

Row | inhibition [4] [%] | SMILES | IC50 [1] [µM] | IC50 [2] [µM] | IC50 [3] [µM] | selectivity ratio [5] | selectivity ratio [6] | MSD [13] [days] | Activity [14] [%] | other results
13 | 38.6 | COC(=O)/C(=C\c1ccc(OC(=O)c2cccc(OC)c2OC)cc1)Sc1ccnc2cc(Cl)ccc12 | 13 | 86.6 | 25.8 | 3.36 | 6.66 |  |  | 
14 | 12.7 | COC(=O)/C(=C\c1ccc(OC(=O)c2ccc(OC)c(OC)c2)cc1)Sc1ccnc2cc(Cl)ccc12 | 5.29 | 51.1 | 8.29 | 6.16 | 9.66 |  |  | Activity [7]: 21.5%; Activity [8]: 13.5%; Activity [9]: 40.2%; Activity [10]: 2.15%; Activity [11]: 0.33%; Activity [12]: 0.76%
15 | 49.2 | COC(=O)/C(=C\c1ccc(OC(=O)c2ccc(OC)cc2OC)cc1)Sc1ccnc2cc(Cl)ccc12 | 7.64 | 41.6 | 10.2 | 4.09 | 5.45 |  |  | 
16 | 12.2 | COC(=O)/C(=C\c1ccc(OC(=O)c2ccc(OC)cc2)cc1)Sc1ccnc2cc(Cl)ccc12 | 9.09 | 63.5 | 11 | 5.77 | 6.99 |  |  | 
17 | 47.7 | COC(=O)/C(=C\c1ccc(OC(=O)c2cc(OC)cc(OC)c2OC)cc1)Sc1ccnc2cc(Cl)ccc12 | 10.7 | 74 | 15.6 | 4.74 | 6.91 |  |  | 
18 | 33.6 | COC(=O)/C(=C\c1ccc(OC(=O)c2ccccc2)cc1)Sc1ccnc2cc(Cl)ccc12 | 30.2 | > 100 | 35.7 |  |  |  |  | 

Reference: ChEMBL document CHEMBL4184243, “Optimization of antimalarial, and anticancer activities of (E)-methyl 2-(7-chloroquinolin-4-ylthio)-3-(4-hydroxyphenyl) acrylate” (Bioorg Med Chem, 2018)
